Laboratory results: PMC11281344 (Viruses, 2024)
Like-named read-outs stand apart in the source and are kept apart here.

Legend:
[1] = tested on: FMDV serotype A [A/TAI/NP05/2017 (NP05)]; experiment: microbe, parasite or virus in culture; assay type: cell-based, Foot-and-mouth disease virus; settings: for EC50: read-out: Antiviral Activity (EC50) CPE (Crystal Violet)
in vitro = settings: hamster
[2] = tested on: human herpes simplex virus-2 (HSV-2); settings: cited from earlier work
[3] = tested on: FMDV serotype A [A/TAI/NP05/2017 (NP05)]; experiment: microbe, parasite or virus in culture; assay type: cell-based, Foot-and-mouth disease virus; settings: for EC50: read-out: Antiviral Activity (EC50) Viral Copy Number (RT-qPCR)
ZIKV = settings: read-out: IC50 against ZIKV; cited from earlier work
[4] = tested on: FMDV serotype A [A/TAI/NP05/2017 (NP05)]; experiment: microbe, parasite or virus in culture; assay type: cell-based, Foot-and-mouth disease virus
FMDV 3D^pol = FMDV 3D^pol (Foot-and-mouth disease virus serotype O, UniProt P03305); experiment: cell-based; assay type: cell-based
FMDV 3D^pol, sequence (P03305 1863-2332 limits assumed): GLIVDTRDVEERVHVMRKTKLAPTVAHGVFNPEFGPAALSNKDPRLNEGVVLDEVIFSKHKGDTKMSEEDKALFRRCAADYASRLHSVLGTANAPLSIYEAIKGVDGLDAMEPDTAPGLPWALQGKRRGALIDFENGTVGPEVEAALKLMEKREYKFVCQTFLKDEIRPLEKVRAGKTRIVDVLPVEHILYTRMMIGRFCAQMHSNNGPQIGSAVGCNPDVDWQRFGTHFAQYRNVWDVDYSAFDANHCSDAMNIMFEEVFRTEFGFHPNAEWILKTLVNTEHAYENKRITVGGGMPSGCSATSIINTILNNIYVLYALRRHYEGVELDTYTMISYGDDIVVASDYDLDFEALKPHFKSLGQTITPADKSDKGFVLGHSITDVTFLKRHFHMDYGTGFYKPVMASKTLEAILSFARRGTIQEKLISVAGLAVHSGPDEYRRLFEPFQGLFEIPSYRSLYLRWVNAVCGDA

HSV-1 = settings: cited from earlier work
[5] = read-out: Antiviral Activity (EC50) FMDV-Infected Cells (IPMA)
[6] = Foot-and-mouth disease virus, BHK-21, 24 h
[7] = Foot-and-mouth disease virus, BHK-21, read-out: Antiviral Activity (EC50) FMDV-Infected Cells (IPMA)

## CC(=O)O[C@@]12CO[C@@H]1C[C@H](O)[C@@]1(C)C(=O)[C@H](O)C3=C(C)[C@@H](O)C[C@@](O)([C@@H](OC(=O)c4ccccc4)[C@H]21)C3(C)C [10-Deacetylbaccatin III]
BHK-21 cells
  CC50: > 500 µM

## CC(C)C1=CC2=CC[C@@H]3[C@](C)(CCC[C@@]3(C)C(=O)O)[C@H]2CC1 [Abietic acid]
[1]
  Antiviral Activity (EC50) CPE (Crystal Violet): Not inhibit
  Antiviral activity against FMDV infection (result in words): did not exhibit antiviral activity
In vitro
  CC50: 99.2 ± 2 µM
[2]
  Activity against HSV-2 (result in words): did not exhibit such activity

## C[C@@H]1C[C@@H]([C@@H](O)C(C)(C)O)O[C@H]2C[C@@]3(C)C(=C12)C[C@H](O)[C@H]1[C@@]2(C)CCC(=O)C(C)(C)[C@@H]2CC[C@@]13C [Alisol F]
BHK-21 cells
  CC50: 85.2 ± 1.93 µM

## CC1=CC(=O)[C@@H](O)[C@]2(C)[C@H]3[C@@H](O)[C@H](O)[C@@]4(C)OC[C@@]35[C@@H](C[C@@H]12)OC(=O)[C@H](O)[C@]54O [Bruceine D]
[3]
  Concentration range of complete inhibition of FMDV: 1 to 2.5 µM
  EC50: 0.42 ± 0.38 µM
[1]
  Antiviral activity against FMDV infection (result in words): exhibited antiviral activities
  EC50: 0.25 ± 0.6 µM
ZIKV
  IC50: 0.36 µM
[4]; [5]
  EC50: 0.32 ± 0.49 µM

## CC1=C[C@H](O)[C@@H](O)[C@]2(C)[C@H]3[C@@H](O)[C@H](O)[C@@]4(C)OC[C@@]35[C@@H](C[C@@H]12)OC(=O)[C@H](O)[C@]54O [Bruceine E]
[3]
  Inhibition of viral load (result in words): moderate potency
[3]; [6]
  EC50: 33.4 ± 1.52 µM
[1]
  Antiviral activity against FMDV infection (result in words): exhibited antiviral activities
[1]; [6]
  EC50: 18.1 ± 1.26 µM
FMDV 3D^pol
  IC50: 26.7 ± 1.43 µM
  Inhibition of FMDV 3Dpol (result in words): moderate inhibition
In vitro
  CC50: 49.6 ± 1.7 µM
[4]; [7]
  EC50: 12.9 ± 1.11 µM

## C=CC1(C)C=C2CCC3C(C)(C(=O)O)CCCC3(C)C2CC1 (centres unmarked) [Continentalic acid]
[3]
  Inhibition of viral load (result in words): moderate inhibition
[3]; [6]
  EC50: 68.3 ± 1.83 µM
[1]
  Antiviral activity against FMDV infection (result in words): exhibited antiviral activities
[1]; [6]
  EC50: 43.4 ± 1.64 µM
FMDV 3D^pol
  IC50: 36.9 ± 1.57 µM
  Inhibition of FMDV 3Dpol (result in words): moderate inhibition
In vitro
  CC50: 88.7 ± 1.82 µM
[4]; [7]
  EC50: 35 ± 1.54 µM

## CC(C)(O)CCC(=O)[C@](C)(O)C1[C@H](O)C[C@@]2(C)[C@@H]3CC=C4[C@@H](C[C@H](O)[C@@H](O)C4(C)C)[C@]3(C)C(=O)C[C@]12C (some centres unmarked) [Cucurbitacin IIb]
BHK-21 cells
  CC50: 240.5 ± 2.38 µM

## CC(C)c1ccc2c(c1)CC[C@H]1[C@](C)(C(=O)O)CCC[C@]21C [Dehydroabietic acid]
[3]
  Inhibition of viral load (result in words): low to moderate inhibition
[3]; [6]
  EC50: 64.5 ± 1.81 µM
[1]
  Antiviral activity against FMDV infection (result in words): exhibited antiviral activities
[1]; [6]
  EC50: 41.7 ± 1.62 µM
HSV-1
  Activity against HSV-1 (result in words): did not inhibit
FMDV 3D^pol
  IC50: > 50 µM
In vitro
  CC50: 94.8 ± 1.98 µM
[2]
  Activity against HSV-2 (result in words): moderate activity
[4]; [7]
  EC50: 34 ± 1.53 µM

## C=C1[C@H](OC(=O)c2ccccc2)C[C@H]2[C@@H](/C=C(\C)C(=O)[C@@]3(OC(C)=O)C[C@H](C)[C@H](OC(=O)c4ccccc4)[C@@H]3[C@H]1OC(C)=O)C2(C)C [Euphorbia factor L2]
BHK-21 cells
  CC50: 114 ± 2.06 µM

## CC(=O)O[C@H]1[C@H]2[C@@H](OC(=O)Cc3ccccc3)[C@@H](C)C[C@]2(OC(C)=O)C(=O)/C(C)=C/[C@@H]2[C@H](CC[C@@]13CO3)C2(C)C [Euphorbiasteroid]
BHK-21 cells
  CC50: > 500 µM

## C=C[C@@]1(C)CC(=O)[C@]2(O)[C@@]3(C)[C@@H](O)CCC(C)(C)[C@@H]3[C@H](O)[C@H](OC(C)=O)[C@@]2(C)O1 [Forskolin]
In vitro
  CC50: 75.9 ± 1.88 µM

## C[C@H](CC(=O)C[C@@H](C)[C@H]1C[C@H](O)[C@@]2(C)C3=C(C(=O)C[C@]12C)[C@@]1(C)CCC(=O)C(C)(C)[C@@H]1C[C@@H]3O)C(=O)O [Ganoderic acid A]
In vitro
  CC50: > 500 µM

## C[C@@H]1C(=O)O[C@H]2C[C@@]34[C@H]5C[C@@H](C(C)(C)C)[C@]36[C@@H](OC(=O)[C@@H]6O)O[C@@]4(C(=O)O5)[C@]21O [Ginkgolide A]
In vitro
  CC50: 314.2 ± 2.5 µM

## CC(C)=CCC[C@](C)(O)[C@H]1CC[C@]2(C)[C@@H]1[C@H](O)C[C@@H]1[C@@]3(C)CC[C@H](O[C@@H]4O[C@H](CO)[C@@H](O)[C@H](O)[C@H]4O[C@@H]4O[C@H](CO)[C@@H](O)[C@H](O)[C@H]4O)C(C)(C)[C@@H]3CC[C@]12C [Ginsenoside Rg3]
BHK-21 cells
  CC50: 269.9 ± 2.43 µM

## CC(C)=CCC[C@](C)(O)[C@H]1CC[C@]2(C)[C@@H]1[C@H](O)C[C@@H]1[C@@]3(C)CC[C@H](O)C(C)(C)[C@@H]3[C@@H](O[C@@H]3O[C@H](CO)[C@@H](O)[C@H](O)[C@H]3O)C[C@]12C [Ginsenoside Rh1]
In vitro
  CC50: 174 ± 2.24 µM

## CC1=C[C@]23C(=O)[C@@H](C=C(CO)[C@@H](O)[C@]2(O)[C@H]1O)[C@H]1[C@@H](C[C@H]3C)C1(C)C [Ingenol]
In vitro
  CC50: 417.1 ± 2.62 µM

## C=C1C[C@@]23CC[C@H]4[C@@](C)(CCC[C@@]4(C)C(=O)O)[C@@H]2CC[C@@H]1C3 [Kaurenoic acid]
[1]
  Antiviral Activity (EC50) CPE (Crystal Violet): Not inhibit
  Antiviral activity against FMDV infection (result in words): did not exhibit antiviral activity
In vitro
  CC50: 266.1 ± 2.42 µM

## C=C1CC[C@H]2[C@@H](/C=C(\C)C(=O)[C@@]3(O)C[C@H](C)[C@H](O)[C@@H]3[C@@H]1O)C2(C)C [Lathyrol]
BHK-21 cells
  CC50: 314.6 ± 2.5 µM

## CC1(C)O[C@H]2CC(=O)OC[C@]23[C@H]2CC[C@@]4(C)[C@H](c5ccoc5)OC(=O)[C@H]5O[C@]54[C@]2(C)C(=O)C[C@@H]13 [Limonin]
In vitro
  CC50: 116 ± 2.07 µM

## C=C1C(=O)[C@]23[C@H](O)[C@H]1CC[C@H]2[C@@]12CO[C@]3(O)[C@@H](O)[C@@H]1C(C)(C)CC[C@@H]2O [Oridonin]
In vitro
  CC50: 46.8 ± 1.67 µM

## COC(=O)C1=CC[C@@]23CC[C@@H]([C@@](C)(/C=C/C=C(\C)C(=O)O)OC2=O)[C@@]3(OC(C)=O)CC1 [Pseudolaric acid]
BHK-21 cells
  CC50: 25.3 ± 1.4 µM

## NC(=O)c1ncn([C@@H]2O[C@H](CO)[C@@H](O)[C@H]2O)n1 [Ribavirin, reference compound]
[3]; [6]
  EC50: 27.7 ± 1.44 µM
[1]; [6]
  EC50: 64.5 ± 1.81 µM
In vitro
  CC50: > 500 µM
[4]; [7]
  EC50: 40.9 ± 1.61 µM

## C[C@@H]1CC[C@]2(C(=O)O[C@@H]3O[C@H](CO)[C@@H](O)[C@H](O)[C@H]3O)CC[C@]3(C)C(=CC[C@@H]4[C@@]5(C)C[C@@H](O)[C@H](O)C(C)(C)[C@@H]5CC[C@]43C)[C@@H]2[C@]1(C)O [Rosamultin]
BHK-21 cells
  CC50: 333.2 ± 2.52 µM

## C=C(C(=O)O)[C@H]1CC[C@H](C)[C@@H]2CC(=O)C(C)=C2C1 [Rupestonic acid]
BHK-21 cells
  CC50: 72.3 ± 1.86 µM

## CC1(C)O[C@H]2CC(=O)OC[C@]23[C@H]2CC[C@@]4(C)[C@H](c5ccoc5)OC(=O)[C@H]5O[C@]54[C@]2(C)[C@@H](O)C(=O)[C@@H]13 [Rutaevin]
In vitro
  CC50: 472 ± 2.67 µM

## C[C@H]1O[C@@H](O[C@H]2CC[C@@]3(C)[C@@H](CC[C@]4(C)[C@@H]3C=CC3=C5CC(C)(C)CC[C@]5(CO)[C@H](O)C[C@]34C)[C@]2(C)CO)[C@H](O)[C@@H](O[C@@H]2O[C@H](CO)[C@@H](O)[C@H](O)[C@H]2O)[C@H]1O [Saikosaponin B2]
BHK-21 cells
  CC50: > 500 µM

## CCC(C)(C)C(=O)O[C@H]1C[C@@H](C)C=C2C=C[C@H](C)[C@H](CC[C@@H]3C[C@@H](O)CC(=O)O3)[C@H]21 [Simvastatin, reference compound]
In vitro
  CC50: 294.4 ± 2.47 µM

## CC1(C)CCC2(C(=O)O)CCC3(CO)C(=CCC4C5(C)CC(O)C(OC6OC(CO)C(O)C(O)C6O)C(C)(C(=O)O)C5CCC43C)C2C1 (centres unmarked) [Tenuifolin]
In vitro
  CC50: 54.9 ± 1.74 µM

## CC(C)[C@]12O[C@H]1[C@@H]1O[C@]13[C@]1(O[C@H]1C[C@H]1C4=C(CC[C@@]13C)C(=O)OC4)[C@@H]2O [Triptolide]
In vitro
  CC50: 122 ± 2.09 µM

## CC(C)c1ccc2c(c1O)CC[C@H]1C3=C(CC[C@]21C)C(=O)OC3 [Triptophenolide]
In vitro
  CC50: 117 ± 2.07 µM

## C[C@@H]1CC[C@]2(C(=O)O)CC[C@]3(C)C(=CC[C@@H]4[C@@]5(C)CC[C@H](O[C@@H]6OC[C@H](O)[C@H](O)[C@H]6O)C(C)(C)[C@@H]5CC[C@]43C)[C@@H]2[C@]1(C)O [Ziyuglycoside II]
BHK-21 cells
  CC50: 57.7 ± 1.76 µM

## Brusatol
[3]
  Concentration range of complete inhibition of FMDV: 0.5 to 1 µM
  EC50: 0.09 µM
[1]
  Antiviral activity against FMDV infection (result in words): exhibited antiviral activities
  EC50: 0.18 ± 0.27 µM
[4]; [5]
  EC50: 0.07 µM
